Results from patent US11214803B2, “Modulators of YAP1 expression” (Ionis Pharmaceuticals, Inc., priority 2019, dated 2022).
Strand notation (5' to 3'): a small letter for the sugar, then the base; units joined by * are phosphorothioate-linked, units joined directly phosphodiester-linked; [ ] holds rarer units or linkages, { } end groups; capitals alone tell only the bases. e = 2'-O-(2-methoxyethyl) (MOE); k = constrained ethyl (cEt); [5mC] = 5-methylcytosine; d = 2'-deoxy (DNA); m = 2'-O-methyl

Test system: Yap1 mRNA
Assay: Antisense inhibition of human Yap1 in SNU-449 cells by modified oligonucleotides, single dose (Example 5, RTS36584)
Format: cell-based
Conditions: Table 39; SNU-449 cells, 10,000 cells per well, free uptake, 2,000 nM oligonucleotide, approx. 48 hours; RTS36584; normalized to RIBOGREEN; Yap1 mRNA relative to untreated control
Procedure, shortened: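 SNU-449 cells were given 2,000 nM oligonucleotide by free uptake for about 48 h. Yap1 mRNA was then measured by RT-qPCR with primer probe set RTS36584, normalized to total RNA by RIBOGREEN and expressed as percent of untreated control.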

| Substance | YAP1 (% UTC) |
| --- | --- |
| 1198397 (k[5mC]*dA*d[5mC]*dT*dT*dT*dT*dA*d[5mC]*dA*dT*kT*eA*kG*eG*kA; antisense) [Compound 1198397] | 17 % UTC |
| 1198432 (kT*dA*dA*dT*dA*dT*dT*dG*d[5mC]*dA*dA*kT*e[5mC]*kT*eG*kT; antisense) [Compound 1198432] | 70 % UTC |
| 1198372 (kA*dA*dT*dT*dG*dT*d[5mC]*dT*d[5mC]*dA*dT*kG*e[5mC]*k[5mC]*eT*kT; antisense) [Compound 1198372] | 21 % UTC |
| 1198384 (kT*dA*dT*dT*dA*dG*dA*dG*dT*dA*dT*kG*eT*kG*eG*k[5mC]; antisense) [Compound 1198384] | 6 % UTC |
| 1198412 (kT*dT*dA*dG*dG*dA*dT*dG*d[5mC]*dA*dT*kG*eG*kT*eT*kT; antisense) [Compound 1198412] | 17 % UTC |
| 1198436 (kT*dA*dT*dG*dT*dA*dA*dT*dA*dT*dT*kG*e[5mC]*kA*eA*kT; antisense) [Compound 1198436] | 69 % UTC |
| 1198453 (kG*dA*d[5mC]*dT*dA*dA*dG*dT*dA*dA*dG*kG*eT*kT*eT*k[5mC]; antisense) [Compound 1198453] | 48 % UTC |

Same assay, conditions: Table 40 (separate experiment); SNU-449 cells, 10,000 cells per well, free uptake, 2,000 nM oligonucleotide, approx. 48 hours; RTS36584; normalized to RIBOGREEN; Yap1 mRNA relative to untreated control

| Substance | YAP1 (% UTC) |
| --- | --- |
| 1198783 (antisense kA*eT*kG*dT*dA*dA*dT*dA*dT*dT*dG*d[5mC]*eA*eA*kT*k[5mC]) [Compound 1198783] | 78 % UTC |
| 1198760 (kT*eT*kA*dG*dG*dA*dT*dG*d[5mC]*dA*dT*dG*eG*eT*kT*kT; antisense) [Compound 1198760] | 91 % UTC |
| 1198756 (kG*eT*kG*d[5mC]*dT*dT*dT*dG*dG*dA*dA*dG*eA*eT*k[5mC]*kT; antisense) [Compound 1198756] | 50 % UTC |
| 1198798 (antisense kT*eA*kA*dG*dT*dA*dA*dG*dG*dT*dT*dT*e[5mC]*e[5mC]*k[5mC]*kA) [Compound 1198798] | 38 % UTC |

Same assay, conditions: Table 41; SNU-449 cells, 10,000 cells per well, free uptake, 2,000 nM modified oligonucleotide, approximately 48 hours; RTS36584; normalized to RIBOGREEN; Yap1 mRNA relative to untreated control cells

| Substance | YAP1 (% UTC) |
| --- | --- |
| 1198733 (kG*eG*kT*dA*dT*dA*dA*d[5mC]*dT*dG*dG*dG*e[5mC]*eA*kA*kA; antisense) [Compound 1198733] | 47 % UTC |
| 1198775 (k[5mC]*eA*kA*d[5mC]*dT*d[5mC]*dT*dT*dA*dT*dA*dT*eG*eG*kT*kT; antisense) [Compound 1198775] | 113 % UTC |
| 1198653 (k[5mC]*kT*dT*dT*dT*dA*d[5mC]*dA*dT*dT*dA*dG*kG*eA*kA*e[5mC]; antisense) [Compound 1198653] | 64 % UTC |

Same assay, conditions: Table 42 (separate experiment); SNU-449 cells, 10,000 cells per well, free uptake, 2,000 nM modified oligonucleotide, approximately 48 hours; RTS36584; normalized to RIBOGREEN; Yap1 mRNA relative to untreated control cells

| Substance | YAP1 (% UTC) |
| --- | --- |
| 1198704 (kA*kA*d[5mC]*dT*dT*dT*dA*dA*dA*dG*dT*dG*kT*eA*kT*eG; antisense) [Compound 1198704] | 72 % UTC |

Same assay, conditions: Table 43 experiment; SNU-449 cells, 10,000 cells per well, free uptake, 2,000 nM, approximately 48 hours; RTS36584; Yap1 mRNA normalized to RIBOGREEN, relative to untreated control cells

| Substance | YAP1 (% UTC) |
| --- | --- |
| 1198467 (antisense kT*kA*dG*dA*dG*dT*dA*dT*dG*dT*dG*eG*k[5mC]*eA*kA*eT) [Compound 1198467] | 27 % UTC |
| 1198482 (antisense kA*k[5mC]*dT*dT*dT*dT*dA*d[5mC]*dA*dT*dT*eA*kG*eG*kA*eA) [Compound 1198482] | 63 % UTC |
| 1198253 (kA*d[5mC]*dT*d[5mC]*dT*dT*dA*dT*dA*dT*dG*eG*eT*eT*kT*kT; antisense) [Compound 1198253] | 50 % UTC |
| 1198273 (k[5mC]*kT*dT*dT*dA*dA*dA*dG*dT*dG*dT*eA*eT*eG*kT*k[5mC]; antisense) [Compound 1198273] | 52 % UTC |

Same assay, conditions: Table 44 experiment; SNU-449 cells, 10,000 cells per well, free uptake, 2,000 nM, approximately 48 hours; RTS36584; Yap1 mRNA normalized to RIBOGREEN, relative to untreated control cells

| Substance | YAP1 (% UTC) |
| --- | --- |
| 1198502 (kA*kG*dA*dT*dT*dT*dA*dG*dG*dA*dT*eG*k[5mC]*eA*kT*eG; antisense) [Compound 1198502] | 16 % UTC |
| 1198892 (kA*kA*dT*dT*dG*dT*d[5mC]*dT*d[5mC]*dA*dT*kG*d[5mC]*k[5mC]*dT*kT) [Compound 1198892] | 24 % UTC |
| 1198534 (kA*kG*dT*dA*dA*dG*dG*dT*dT*dT*d[5mC]*e[5mC]*k[5mC]*eA*kG*eA; antisense) [Compound 1198534] | 30 % UTC |

Same assay, conditions: Table 45; Yap1 mRNA as percent of untreated control, SNU-449 cells, single dose

| Substance | YAP1 (% UTC) |
| --- | --- |
| 1095511 (antisense k[5mC]*kA*d[5mC]*dT*dG*dA*dG*dG*dT*dA*dT*kA*dA*k[5mC]*dT*kG) [Compound 1095511] | 46 % UTC |
| 1198917 (k[5mC]*kA*d[5mC]*dT*dT*dT*dT*dA*d[5mC]*dA*dT*kT*dA*kG*dG*kA; antisense) [Compound 1198917] | 21 % UTC |
| 1198927 (kT*kG*d[5mC]*dT*dT*dT*dG*dG*dA*dA*dG*kA*dT*k[5mC]*dT*kG; antisense) [Compound 1198927] | 50 % UTC |
| 1198910 (kA*kG*dG*dT*dA*dT*dA*dA*d[5mC]*dT*dG*kG*dG*k[5mC]*dA*kA; antisense) [Compound 1198910] | 40 % UTC |
| 1198959 (kA*kG*dT*dG*dT*dA*dT*dG*dT*d[5mC]*dA*kG*dA*kA*dG*kA; antisense) [Compound 1198959] | 8 % UTC |

Same assay, conditions: Table 46; Yap1 mRNA as percent of untreated control, SNU-449 cells, single dose

| Substance | YAP1 (% UT) |
| --- | --- |
| 1198819 (kA*kT*dA*dT*dT*dA*dG*dA*dG*dT*dA*kT*eG*kT*eG*kG; antisense) [Compound 1198819] | 44 % UT |
| 1198830 (kA*k[5mC]*dT*dT*dT*dT*dA*d[5mC]*dA*dT*dT*kA*eG*kG*eA*kA) [Compound 1198830] | 37 % UT |
| 1198812 (antisense kA*kT*dA*dT*dG*dG*dA*dA*dA*dT*dT*kG*eT*k[5mC]*eT*k[5mC]) [Compound 1198812] | 26 % UT |

Same assay, conditions: Table 48; Yap1 mRNA level relative to untreated control; modified oligonucleotides targeting SEQ ID NO.: 1 and 2

| Substance | YAP1 (% UT) |
| --- | --- |
| 1198314 (kA*kA*kG*d[5mC]*dA*d[5mC]*dT*dT*dT*dT*dA*d[5mC]*kA*eT*kT*eA; antisense) [Compound 1198314] | 82 % UT |
| 1198289 (kG*kG*kA*dA*dA*dT*dT*dG*dT*d[5mC]*dT*d[5mC]*kA*eT*kG*e[5mC]; antisense) [Compound 1198289] | 12 % UT |

Same assay, conditions: Table 49; Yap1 mRNA level relative to untreated control; modified oligonucleotides targeting SEQ ID NO.: 1 and 2

| Substance | YAP1 (% UT) |
| --- | --- |
| 1198365 (k[5mC]*kT*kA*dA*dG*dT*dA*dA*dG*dG*dT*dT*kT*e[5mC]*k[5mC]*e[5mC]; antisense) [Compound 1198365] | 13 % UT |
| 1198570 (antisense kG*k[5mC]*kA*d[5mC]*dT*dT*dT*dT*dA*d[5mC]*dA*dT*kT*kA*kG*eG) [Compound 1198570] | 15 % UT |
| 1198352 (kT*kG*kT*dA*dT*dG*dT*d[5mC]*dA*dG*dA*dA*kG*eA*kG*eT; antisense) [Compound 1198352] | 7 % UT |

Same assay, conditions: Table 50; Yap1 mRNA remaining as percent of untreated control (UT), SNU-449 cells, single dose

| Substance | YAP1 (% UT) |
| --- | --- |
| 1197286 (kA*kT*kA*dT*mU*dA*dG*dA*dG*dT*dA*dT*dG*kT*kG*kG) [Compound 1197286] | 43 % UT |

Same assay, conditions: Table 51; Yap1 mRNA remaining as percent of untreated control (UT), SNU-449 cells, single dose

| Substance | YAP1 (% UT) |
| --- | --- |
| 1197274 (kA*kG*kT*dA*mA*dG*dG*dT*dT*dT*d[5mC]*d[5mC]*d[5mC]*kA*kG*kA) [Compound 1197274] | 31 % UT |
| 1197271 (kT*kT*kT*dA*mA*dA*dG*dT*dG*dT*dA*dT*dG*kT*k[5mC]*kA) [Compound 1197271] | 12 % UT |
| 1197311 (kT*kT*kT*dA*mU*dG*dT*dA*dA*dT*dA*dT*dT*kG*k[5mC]*kA; antisense) [Compound 1197311] | 27 % UT |

Same assay, conditions: Table 52; Yap1 mRNA, modified oligonucleotides targeting SEQ ID NO: 1 and 2

| Substance | YAP1 (% UT) |
| --- | --- |
| 1200802 (TATAACTGGGCAAATT; cEt gapmer, phosphorothioate, 5-methylcytosine, chemistry not fully specified) [Compound 1200802] | 89 % UT |
| 1200804 (kA*kG*kG*dT*dA*mU*dA*dA*d[5mC]*dT*dG*dG*dG*k[5mC]*kA*kA; antisense) [Compound 1200804] | 44 % UT |
| 1200843 (kA*k[5mC]*kT*d[5mC]*dT*mU*dA*dT*dA*dT*dG*dG*dT*kT*kT*kT; antisense) [Compound 1200843] | 46 % UT |
| 1200820 (kG*kG*kA*dA*dG*mA*dT*d[5mC]*dT*dG*dA*dA*dA*k[5mC]*kT*k[5mC]; antisense) [Compound 1200820] | 24 % UT |
| 1200862 (kT*kT*kT*dA*dA*mA*dG*dT*dG*dT*dA*dT*dG*kT*k[5mC]*kA; antisense) [Compound 1200862] | 17 % UT |
| 1200824 (kG*k[5mC]*kT*dT*dT*mG*dG*dA*dA*dG*dA*dT*d[5mC]*kT*kG*kA; antisense) [Compound 1200824] | 43 % UT |

Same assay, conditions: Yap1 mRNA, percent of untreated control; modified oligonucleotides targeting SEQ ID NO: 1 and 2; Table 47

| Substance | YAP1 (% UT) |
| --- | --- |
| 1197181 (antisense kT*kT*kA*d[5mC]*dA*dT*dT*dA*dG*dG*dA*dA*d[5mC]*kA*kA*kG) [Compound 1197181] | 87 % UT |
| 1197210 (antisense kA*kT*kG*dT*dA*dA*dT*dA*dT*dT*dG*d[5mC]*dA*kA*kT*k[5mC]) [Compound 1197210] | 105 % UT |
| 1198872 (kT*kG*dT*dA*dT*dG*dT*d[5mC]*dA*dG*dA*kA*eG*kA*eG*kT; antisense) [Compound 1198872] | 8 % UT |
